Test results published in ChEMBL document CHEMBL4837225, “Water-soluble derivatives of evodiamine: Discovery of evodiamine-10-phosphate as an orally active antitumor lead compound” (Eur J Med Chem, 2021).
Converted amounts (≈) assume the structure as drawn. The source made the active and inactive calls. The calls are words filed in the database; no cut-off is given here.

Columns and labels:
HCT-116 [1] = experiment: Cell cycle arrest in human HCT-116 cells assessed as accumulation at S phase at 0.5 uM incubated for 24 hrs by propidium iodide staining based flow cytometric analysis (Rvb =44.3 %); type: functional
HCT-116 [2] = experiment: Antitumor activity against human HCT-116 cells xenografted in BALB/c nude mouse assessed as inhibition of tumor growth at 60 mg/kg, po BID administered for 21 days measured by caliper relative to control; type: functional; conditions: HCT-116, po, 504 h, time 21 day, read-out: TGI
HCT-116 [3] = experiment: Induction of apoptosis in human HCT-116 cells assessed as late apoptotic cells level at 0.5 uM incubated for 48 hrs by annexin V-FITC/propidium iodide staining based flow cytometry (reference value: 1.87%); type: functional
HCT-116 [4] = experiment: Cell cycle arrest in human HCT-116 cells assessed as accumulation at G2 phase at 0.5 uM incubated for 24 hrs by propidium iodide staining based flow cytometric analysis (Rvb =20 %); type: functional
[5] = molecular target: DNA topoisomerase 2-alpha (Homo sapiens) (UniProt P11388); experiment: Inhibition of TOP2 (unknown origin) by ethidium bromide staining based gel electrophoresis
A549 = experiment: Antitumor activity against human A549 cells xenografted in BALB/c nude mouse assessed as inhibition of tumor growth at 150 mg/kg, po BID for 14 days relative to control; type: functional; conditions: 336 h, time 14 day, read-out: TGI
HCT-116 [6] = experiment: Induction of apoptosis in human HCT-116 cells assessed as upregulation of Bax expression at 0.2 to 5 uM measured after 24 hrs by Western blot analysis; type: functional, cell-based; conditions: dose 0.2-5 µM
HCT-116 [7] = experiment: Induction of apoptosis in human HCT-116 cells assessed as increase in caspase-3 level at 0.2 to 5 uM measured after 24 hrs by Western blot analysis; type: functional, cell-based; conditions: dose 0.2-5 µM
[8] = molecular target: DNA topoisomerase 2-alpha (Homo sapiens) (UniProt P11388); experiment: Inhibition of TOP2 (unknown origin) assessed as formation of short DNA fragments using supercoiled plasmid DNA at 100 uM by ethidium bromide staining based gel
HCT-116 [9] = experiment: Induction of apoptosis in human HCT-116 cells assessed as early apoptotic cells level at 0.05 uM incubated for 48 hrs by annexin V-FITC/propidium iodide staining based flow cytometry (reference value: 2.02%); type: functional
HCT-116 [10] = experiment: Induction of apoptosis in human HCT-116 cells assessed as late apoptotic cells level at 0.05 uM incubated for 48 hrs by annexin V-FITC/propidium iodide staining based flow cytometry (reference value: 1.87%); type: functional
HCT-116 [11] = experiment: Antitumor activity against human HCT-116 cells xenografted in iv dosed BALB/c nude mouse assessed as inhibition of tumor growth measured by caliper relative to control; type: functional
HCT-116 [12] = experiment: Induction of apoptosis in human HCT-116 cells assessed as increase in caspase-9 level at 0.2 to 5 uM measured after 24 hrs by Western blot analysis; type: functional, cell-based; conditions: dose 0.2-5 µM
HCT-116 [13] = experiment: Induction of apoptosis in human HCT-116 cells assessed as early apoptotic cells level at 0.5 uM incubated for 48 hrs by annexin V-FITC/propidium iodide staining based flow cytometry (reference value: 2.02%); type: functional
[14] = Toxicity in BALB/c nude mouse xenografted with human HCT-116 cells assessed as effect on body weight at 150 mg/kg, po bid for 21 days relative to control; type: organism-based; conditions: in vivo, 504 h, time 21 day
HCT-116 [15] = experiment: Induction of apoptosis in human HCT-116 cells assessed as late apoptotic cells level at 0.1 uM incubated for 48 hrs by annexin V-FITC/propidium iodide staining based flow cytometry (reference value: 1.87%); type: functional
MDA-MB-231 = experiment: Antiproliferative activity against human MDA-MB-231 cells assessed as inhibition of cell proliferation incubated for 72 hrs by CCK8 assay; type: functional, cell-based; conditions: MDA-MB-231, 72 h
[16] = Solubility of the compound in double distilled water; type: physicochemical
Tubulin = experiment: Inhibition of tubulin polymerization (unknown origin); type: protein-complex assay, Homo sapiens
HCT-116 [17] = experiment: Induction of apoptosis in human HCT-116 cells assessed as downregulation of Bcl-2 expression at 0.2 to 5 uM measured after 24 hrs by Western blot analysis; type: functional, cell-based; conditions: dose 0.2-5 µM
HCT-116 [18] = experiment: Antiproliferative activity against human HCT-116 cells assessed as inhibition of cell proliferation incubated for 72 hrs by CCK8 assay; type: functional, cell-based; conditions: HCT-116, 72 h
HCT-116 [19] = experiment: Cell cycle arrest in human HCT-116 cells assessed as accumulation at G2 phase at 0.1 uM incubated for 24 hrs by propidium iodide staining based flow cytometric analysis (Rvb =20 %); type: functional
HCT-116 [20] = experiment: Antitumor activity against human HCT-116 cells xenografted in BALB/c nude mouse assessed as necrosis at 150 mg/kg, po bid by H&E staining based light microscopic analysis; type: functional, organism-based
[21] = Toxicity in BALB/c nude mouse xenografted with human A549 cells assessed as morphological changes in kidney at 150 mg/kg, po bid by H&E staining based light microscopic analysis; type: organism-based; conditions: in vivo
[22] = Toxicity in BALB/c nude mouse xenografted with human A549 cells assessed as morphological changes in liver at 150 mg/kg, po bid by H&E staining based light microscopic analysis; type: organism-based; conditions: in vivo
HCT-116 [23] = experiment: Induction of apoptosis in human HCT-116 cells assessed as early apoptotic cells level at 0.1 uM incubated for 48 hrs by annexin V-FITC/propidium iodide staining based flow cytometry (reference value: 2.02%); type: functional
[24] = Solubility of the compound in PBS buffer at pH 7.4; type: physicochemical
HCT-116 [25] = experiment: Induction of apoptosis in human HCT-116 cells assessed as increase in p-53 level at 0.2 to 5 uM measured after 24 hrs by Western blot analysis; type: functional, cell-based; conditions: dose 0.2-5 µM
[26] = Toxicity in BALB/c nude mouse xenografted with human A549 cells assessed as effect on body weight at 150 mg/kg, po bid for 14 days; type: organism-based; conditions: in vivo, 336 h, time 14 day
HCT-116 [27] = experiment: Induction of apoptosis in human HCT-116 cells assessed as increase in ratio of Bax to Bcl2 level at 0.2 to 5 uM measured after 24 hrs by Western blot analysis; type: functional, cell-based; conditions: dose 0.2-5 µM
HCT-116 [28] = experiment: Cell cycle arrest in human HCT-116 cells assessed as accumulation at G1 phase at 0.5 uM incubated for 24 hrs by propidium iodide staining based flow cytometric analysis (Rvb =35.7 %); type: functional
HCT-116 [29] = experiment: Antitumor activity against human HCT-116 cells xenografted in BALB/c nude mouse assessed as inhibition of tumor growth at 150 mg/kg, po BID measured by caliper relative to control; type: functional; conditions: HCT-116, po, read-out: TGI
[30] = Toxicity in BALB/c nude mouse xenografted with human HCT-116 cells assessed as effect on body weight at 60 mg/kg, po bid for 21 days relative to control; type: organism-based; conditions: in vivo, 504 h, time 21 day
[31] = Half life in mouse liver microsomes; type: ADME, Microsome
HCT-116 [32] = experiment: Cell cycle arrest in human HCT-116 cells assessed as accumulation at S phase at 0.1 uM incubated for 24 hrs by propidium iodide staining based flow cytometric analysis (Rvb =44.3 %); type: functional
HCT-116 [33] = experiment: Cell cycle arrest in human HCT-116 cells assessed as accumulation at G1 phase at 0.1 uM incubated for 24 hrs by propidium iodide staining based flow cytometric analysis (Rvb =35.7 %); type: functional

Sequence of DNA topoisomerase 2-alpha (Homo sapiens) (P11388 whole entry, the tested form may be a part): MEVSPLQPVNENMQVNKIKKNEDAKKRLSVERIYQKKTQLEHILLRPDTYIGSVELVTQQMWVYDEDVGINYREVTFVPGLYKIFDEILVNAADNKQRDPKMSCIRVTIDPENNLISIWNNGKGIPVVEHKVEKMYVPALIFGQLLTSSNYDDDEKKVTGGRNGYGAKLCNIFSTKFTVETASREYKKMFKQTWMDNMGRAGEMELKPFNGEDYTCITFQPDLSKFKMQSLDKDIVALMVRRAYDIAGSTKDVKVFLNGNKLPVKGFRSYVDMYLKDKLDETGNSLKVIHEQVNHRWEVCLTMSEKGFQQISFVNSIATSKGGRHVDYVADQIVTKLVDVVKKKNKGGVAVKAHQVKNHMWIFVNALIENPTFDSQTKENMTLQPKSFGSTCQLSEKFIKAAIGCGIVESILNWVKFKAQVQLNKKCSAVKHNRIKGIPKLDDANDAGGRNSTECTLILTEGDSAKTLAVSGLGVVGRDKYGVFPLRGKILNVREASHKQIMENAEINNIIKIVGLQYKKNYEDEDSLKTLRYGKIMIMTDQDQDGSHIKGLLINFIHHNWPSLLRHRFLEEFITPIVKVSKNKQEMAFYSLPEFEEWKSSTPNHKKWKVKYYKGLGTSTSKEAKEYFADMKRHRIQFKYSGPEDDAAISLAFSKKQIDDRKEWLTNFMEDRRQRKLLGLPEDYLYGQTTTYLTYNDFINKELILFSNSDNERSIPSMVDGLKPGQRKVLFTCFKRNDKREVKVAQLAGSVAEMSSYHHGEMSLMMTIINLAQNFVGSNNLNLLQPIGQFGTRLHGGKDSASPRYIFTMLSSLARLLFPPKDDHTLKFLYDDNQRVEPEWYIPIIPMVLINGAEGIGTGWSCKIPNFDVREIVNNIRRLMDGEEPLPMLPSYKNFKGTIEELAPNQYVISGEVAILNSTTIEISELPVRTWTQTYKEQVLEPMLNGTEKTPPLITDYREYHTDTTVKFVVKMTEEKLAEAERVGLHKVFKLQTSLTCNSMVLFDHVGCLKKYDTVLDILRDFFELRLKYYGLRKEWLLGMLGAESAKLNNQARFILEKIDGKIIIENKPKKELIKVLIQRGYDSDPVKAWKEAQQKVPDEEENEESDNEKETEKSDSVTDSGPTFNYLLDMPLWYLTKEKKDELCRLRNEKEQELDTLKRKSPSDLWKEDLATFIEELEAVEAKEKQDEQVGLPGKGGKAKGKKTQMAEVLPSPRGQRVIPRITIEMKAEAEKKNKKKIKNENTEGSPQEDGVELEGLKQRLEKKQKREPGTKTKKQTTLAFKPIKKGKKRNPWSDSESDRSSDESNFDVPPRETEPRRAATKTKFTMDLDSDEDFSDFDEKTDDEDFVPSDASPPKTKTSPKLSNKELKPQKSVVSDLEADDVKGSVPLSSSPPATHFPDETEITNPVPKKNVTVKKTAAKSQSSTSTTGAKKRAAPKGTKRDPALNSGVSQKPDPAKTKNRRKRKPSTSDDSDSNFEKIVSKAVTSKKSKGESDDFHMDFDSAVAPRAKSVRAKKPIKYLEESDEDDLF

CN1c2ccccc2C(=O)N2CCc3c([nH]c4ccc(OP(=O)(O)O)cc34)C21 (stereo unspecified)
Activity (HCT-116 [1]): 30.4% | inhibition in vivo at 60 mg/kg (HCT-116 [2]): 48% | Activity (HCT-116 [3]): 13.49% | Activity (HCT-116 [4]): 65.3% | inhibition [5]: Dose-Dependent Effect | inhibition in vivo at 150 mg/kg (A549): 59% | Activity (HCT-116 [6]): Active | Activity (HCT-116 [7]): Active | inhibition [8]: Active | Activity (HCT-116 [9]): 15.1% | Activity (HCT-116 [10]): 8.45% | TGI (HCT-116 [11]): 45% | Activity (HCT-116 [12]): Active | Activity (HCT-116 [13]): 44.04% | Activity [14]: Toxic | Activity (HCT-116 [15]): 14.8% | IC50 (MDA-MB-231): 650 nM | solubility [16]: 36 µg/mL (≈ 90.1 µM) | IC50 (Tubulin): 31600 nM | Activity (HCT-116 [17]): Active | IC50 (HCT-116 [18]): 66 nM | Activity (HCT-116 [19]): 53.4% | Activity (HCT-116 [20]): Active | Activity [21]: Non-Toxic | Activity [22]: Non-Toxic | Activity (HCT-116 [23]): 38.55% | solubility [24]: > 1000 µg/mL | Activity (HCT-116 [25]): Active | Activity [26]: Non-Toxic | Activity (HCT-116 [27]): Active | Activity (HCT-116 [28]): 4.3% | inhibition in vivo at 150 mg/kg (HCT-116 [29]): 48% | Activity [30]: Non-Toxic | half-life [31]: 58.4 min | Activity (HCT-116 [32]): 40.7% | Activity (HCT-116 [33]): 6%
